In patent publication US20130136740A1, “METHODS OF TREATING CANCER” (priority 2011, published 2013):

Assays:
DMS53 cells = assay: CellTiter-Glo cell number assay, DMS53; type: cell-based, Human; conditions: 15 μg/ml, 4 days, 10%, 1% or 0.1% FBS
From the text: A panel of lung cancer cell lines displaying potential amplification of the FGFR1 gene was identified using CONAN (http://www.sanger.ac.uk/cgi-bin/genetics/CGP/conan/search.cgi) and Tumorscape (http://www.broadinstitute.org/tumorscape/pages/portalHomejsf). CONAN and Tumorscape represent public data mining tools to extract gene copy number information for predefined or user defined loci across the SNP6.0 dataset of cancer. Lung cancer cell lines DMS53, DMS114, NCI-H1581 and NCI-H520 were identified as having potential amplification of the FGFR1 gene (>4 copies/cell) and were selected for further analysis. Human small cell lung cancer (SCLC) cell lines DMS53 and DMS114 were purchased from ATCC (Manassas, Va.; Cat. No. CRL-2062; Cat. No. CRL-2066, respectfully). The cells were cultured in Waymouth's MB 752/1 medium+10% FBS+2 mM L-glutamine at 37° C. in a humidified atmosphere with 5% CO2. […]
(§1) To determine cell number the CellTiter-Glo® Luminescent Cell Viability Assay (Promega, Madison, Wis.) was employed. CellTiter-Glo® is a homogeneous method of determining the number of viable cells in culture based on quantitation of the ATP present, an indicator of metabolically active cells. […] Luminescence was then determined on an EnVision™ Multilabel Plate Reader (PerkinElmer, Boston, Mass.) with a 0.2 second integration time. Results were expressed as relative light units (RLU)/well.

NCI-H522 cells = assay: CellTiter-Glo cell number assay, NCI-H522; type: cell-based, Human; conditions: NCI-H522, no FGFR1 amplification, FGFR1 overexpression
Method: To determine the impact of FGFR1-ECD.339-Fc on lung cancer cell lines in tissue culture, cells were plated in a Microtest™ 96-well tissue culture plate (Becton Dickenson, Franklin Lakes, N.J.) at a density of 5×10^3 cells/well in medium containing 10%, 1% or 0.1% FBS in the presence or absence of 15 μg/ml FGFR1-ECD.339-Fc (SEQ ID NO: 6) or an unrelated ECD-Fc fusion protein (as a negative control). Plates were incubated at 37° C. at 5% CO2 for 4 days and then assayed to determine the impact of FGFR1-ECD.339-Fc on cell number and proliferation.
as §1
NCI-H226 and NCI-H522 were also sensitive to FGFR1-ECD.339-Fc in vitro, having decreased cell proliferation and number using the tritiated thymidine ([3H]-TdR) incorporation assay and CellTiter-Glo® Luminescent Cell Viability Assay (Promega, Madison, Wis.), respectively. […] P-values were determined using an unpaired t-test. […]

mitogenic FGFs = assay: Binding to mitogenic FGFs relative to FGF-23; conditions: higher affinity than to FGF-23
Method: FGFR1-ECD.339-Fc binds to the mitogenic FGFs with 10 to 100-fold higher affinity than to FGF-23. […] The potential biological impact of this relatively weak FGFR1-ECD.339-Fc/FGF-23 binding was investigated in rats following four weekly doses of FGFR1-ECD.339-Fc at a dose range of 10-200 mg/kg/qwk.

FGFR1-ECD.339-Fc: FGFR1 ECD fusion molecule: human FGFR1 extracellular domain ending at amino acid 339 fused to an Fc; SEQ ID NO: 6 (mature form)
cell number (CellTiter-Glo) (DMS53 cells): significantly (P=>0.01) reduced
cell number (CellTiter-Glo) (NCI-H522 cells): decreased
affinity for mitogenic FGFs relative to FGF-23 (mitogenic FGFs): 10 to 100 fold
